How the values were obtained:
Format in all cases: binding
IpaH9.8 (21–545) = molecular target: T1, IpaH9.8 (21–545) (Shigella flexneri, UniProt Q8VSC3); test: Intact protein LC-MS covalent fragment labelling; conditions: dilution series 100–6.25 μM, 24 hours at 4 °C
T1 construct: Recombinant IpaH9.8 (21–545) and SspH1 (161–700) were incubated at 0.5 μM; His-tag (N, cleaved yes); made in house; host or cells: E. coli BL21
Source text: A diverse library of 227 compounds with chloroacetamide warheads, featuring a diversity of molecular weight (162–321 Da) and clog P (−1.4 to 3.4) (Table S1), were screened against Salmonella and Shigella NEL E3 ligases using our intact protein liquid chromatography mass spectrometry (LC-MS) platform as previously described.[39,40] Briefly, recombinant SspH1 (161–700[30]) and IpaH9.8 (21–545[29]) (Fig. […] 1C). Raw counts were deconvoluted and the labelling percentage calculated by detection and comparison of protein and protein-fragment molecular weights.
Fig. 1 Intact protein LCMS screening of covalent fragment library against NEL proteins. (A) Cartoon depicting conserved NEL E3 ligase domains; (B) overlaid structures of SspH1 (blue, PDB 9H6W[30]) and IpaH9.8 (green, PDB 6LOL[29]) aligned on NEL domain; (C) workflow of covalent fragment screening using intact LC-MS; (D) fragment labelling percentages for SspH1 and IpaH9.8 with fragments 1–3 highlighted. […]
To mitigate the risk of selecting compounds which indiscriminately recognise ubiquitin binding proteins, we next performed preliminary selectivity studies with compounds 6 and 7 against human ubiquitin system proteins. […] In parallel, we tested the compounds against related NEL E3 ligases SspH2 and IpaH9.8. […]

SspH2 = molecular target: T2, SspH2 (Salmonella typhimurium, UniProt D0ZPH9); test: Intact LC-MS labelling dilution series; conditions: dilution series 100–6.25 μM, 24 hours at 4 °C
T2 construct: Recombinant SspH1 (aa 161–700) and SspH2 (aa 166–783) were both characterised; His-tag (N, cleaved yes); made in house; host or cells: E. coli BL21
Procedure: Fig. 3 Validation of HTC hit compounds by intact MS. Labelling heatmaps of dilution series (100–6.25 μM) of compounds 4–10 with (A) WT SspH1 and (B) C492K SspH1. Labelling heatmaps of dilution series of (C) compound 6 and (D) compound 7 with bacterial and human ubiquitin binding proteins. Recombinant proteins were incubated at either 1.0 or 0.5 μM with 50 μM fragments for 24 hours at 4 °C, before fragment labelling was analysed by intact LC-MS. Bacterial proteins are shown in bold and human proteins in italic fonts. (E)–(H) Kinetics analyses: time courses (0–12 hours) of compound labelling (100–1.56 μM) of SspH1 and SspH2 (0.5 μM) for (E) SspH1 and compound 7, and (F) SspH2 and compound 6. Measurements were performed in technical triplicates. Labelling percentages were plotted against time in GraphPad Prism v.10, and curves fitted separately for each replicate using one-phase association, with constraints Y0 = 0 and plateau = highest labelling percentage. Graphs for SspH1 and compound 6, and SspH2 and compound 7 are shown in Fig. S4A and B. Rate constants (kobs, as given by Graphpad Prism calculated K values) were plotted against fragment concentration in triplicate for (G) SspH1 and (H) SspH2. Straight lines were fitted with constraint Yintercept = 0. For SspH2 kinetics, 100 μM kobs was outside the linear range. […]

SspH2 (aa 166–783) = molecular target: T3, SspH2 (aa 166–783) (Salmonella typhimurium, UniProt D0ZPH9); test: Full kinetics characterisation of covalent labelling by intact LC-MS; conditions: for fold higher kinact/KI with SspH2 than SspH1: SspH2 versus SspH1
T3 construct: Recombinant SspH1 (aa 161–700) and SspH2 (aa 166–783) were both characterised; His-tag (N, cleaved yes); made in house; host or cells: E. coli BL21
Procedure: (§1) Fig. 3 Validation of HTC hit compounds by intact MS. Labelling heatmaps of dilution series (100–6.25 μM) of compounds 4–10 with (A) WT SspH1 and (B) C492K SspH1. Labelling heatmaps of dilution series of (C) compound 6 and (D) compound 7 with bacterial and human ubiquitin binding proteins. Recombinant proteins were incubated at either 1.0 or 0.5 μM with 50 μM fragments for 24 hours at 4 °C, before fragment labelling was analysed by intact LC-MS. Bacterial proteins are shown in bold and human proteins in italic fonts. (E)–(H) Kinetics analyses: time courses (0–12 hours) of compound labelling (100–1.56 μM) of SspH1 and SspH2 (0.5 μM) for (E) SspH1 and compound 7, and (F) SspH2 and compound 6. Measurements were performed in technical triplicates. Labelling percentages were plotted against time in GraphPad Prism v.10, and curves fitted separately for each replicate using one-phase association, with constraints Y0 = 0 and plateau = highest labelling percentage. Graphs for SspH1 and compound 6, and SspH2 and compound 7 are shown in Fig. S4A and B. Rate constants (kobs, as given by Graphpad Prism calculated K values) were plotted against fragment concentration in triplicate for (G) SspH1 and (H) SspH2. Straight lines were fitted with constraint Yintercept = 0. For SspH2 kinetics, 100 μM kobs was outside the linear range.
(§2) To further understand and compare the labelling of SspH1 and SspH2, we performed a full kinetic analysis of compounds 6 and 7 with both proteins (Fig. 3E–H and Fig. S4A, B). […] Up to a maximum test concentration of 100 μM, the kobsvs. concentration plot was linear for SspH1 so it was not possible to derive individual values of kinact and KI. For SspH2, the relationship was also linear up to 50 μM so it was still only possible to reliably calculate kinact/KI. Nonetheless, we can infer from these plots KI values (SspH1) >100 μM and KI values […] for compounds 6 and 7. From these lower bounds on KI it is clear that the range of ligand efficiencies reflecting the reversible binding interactions with SspH1 and 2 are low (0.19–0.21) and may hint at a challenging binding site for optimising a small molecule inhibitor. Identification of alternative hit series and/or X-ray crystallography would be expected to yield further insight into this putative small molecule binding site. […] At present we don’t understand the molecular basis for the increased reactivity of SspH2 over SspH1, and can only speculate that subtle differences in the active site environment render the catalytic cysteine more reactive.
(§3) Recombinant SspH1 (aa 161–700) and SspH2 (aa 166–783) were both characterised against compounds 6 and 7. A dilution series in DMSO was prepared for the compound, and 1 μL added to three separate wells in a 384 well plate, representing technical triplicates of each condition. 99 μL of 0.5 μM SspH1 or SspH2 in 25 mM HEPES pH 7.5, 50 mM NaCl buffer was added to the wells and mixed thoroughly (final compound concentrations 100, 50, 25, 12.5, 6.25, 3.125, 1.56 μM). This mixture was then dispensed into 8 wells of 10 μL each in a new 384 well plate, one for each time point. The plate was incubated at 4 °C during intact MS. Intact protein LC-MS was performed as previously described,[40] at approximate time points 0, 1, 2, 4, 6, 8 and 12 hours, and deconvoluted as above. The exact times of each measurement were saved with each reading and used for kinetics calculations. Labelling percentages were plotted against time in GraphPad Prism v.10, and curves fitted separately for each replicate using one-phase association, with constraints Y0 = 0 and plateau = highest labelling percentage. Rate constants (kobs, as given by Graphpad Prism calculated K values) were then plotted against concentration in triplicate, and straight lines fitted with constraint Yintercept = 0. Data are presented as mean ± SD, n = 3. Slope values were converted from μM^−1 hour^−1 to M^−1 s^−1 to give kinact/KI values. […]

SspH1 (aa 161–700) = molecular target: T4, SspH1 (aa 161–700) (Salmonella typhimurium, UniProt D0ZVG2); test: as above; conditions: for ligand efficiencies reflecting the reversible binding interactions: SspH1 and 2, from lower bounds on KI
T4 construct: Recombinant IpaH9.8 (21–545) and SspH1 (161–700) were incubated at 0.5 μM; His-tag (N, cleaved yes); made in house; host or cells: E. coli BL21
Procedure: as §1, §2, §3

T3 sequence (D0ZPH9 166-783): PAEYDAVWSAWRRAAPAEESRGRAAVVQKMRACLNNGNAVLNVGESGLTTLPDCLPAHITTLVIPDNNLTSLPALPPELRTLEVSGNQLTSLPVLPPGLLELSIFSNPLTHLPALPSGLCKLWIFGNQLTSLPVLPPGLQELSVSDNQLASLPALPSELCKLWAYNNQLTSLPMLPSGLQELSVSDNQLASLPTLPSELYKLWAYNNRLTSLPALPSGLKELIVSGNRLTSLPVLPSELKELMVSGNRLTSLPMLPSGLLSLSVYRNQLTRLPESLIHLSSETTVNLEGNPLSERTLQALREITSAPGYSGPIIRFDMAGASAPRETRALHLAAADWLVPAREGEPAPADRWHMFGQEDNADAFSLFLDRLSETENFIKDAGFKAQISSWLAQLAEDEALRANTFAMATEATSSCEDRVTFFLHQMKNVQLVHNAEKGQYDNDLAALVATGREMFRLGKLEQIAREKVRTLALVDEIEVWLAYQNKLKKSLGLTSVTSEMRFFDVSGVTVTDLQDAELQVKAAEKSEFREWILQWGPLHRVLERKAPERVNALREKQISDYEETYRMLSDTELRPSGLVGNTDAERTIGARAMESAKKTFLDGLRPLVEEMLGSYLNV
T4 sequence (D0ZVG2 161-700): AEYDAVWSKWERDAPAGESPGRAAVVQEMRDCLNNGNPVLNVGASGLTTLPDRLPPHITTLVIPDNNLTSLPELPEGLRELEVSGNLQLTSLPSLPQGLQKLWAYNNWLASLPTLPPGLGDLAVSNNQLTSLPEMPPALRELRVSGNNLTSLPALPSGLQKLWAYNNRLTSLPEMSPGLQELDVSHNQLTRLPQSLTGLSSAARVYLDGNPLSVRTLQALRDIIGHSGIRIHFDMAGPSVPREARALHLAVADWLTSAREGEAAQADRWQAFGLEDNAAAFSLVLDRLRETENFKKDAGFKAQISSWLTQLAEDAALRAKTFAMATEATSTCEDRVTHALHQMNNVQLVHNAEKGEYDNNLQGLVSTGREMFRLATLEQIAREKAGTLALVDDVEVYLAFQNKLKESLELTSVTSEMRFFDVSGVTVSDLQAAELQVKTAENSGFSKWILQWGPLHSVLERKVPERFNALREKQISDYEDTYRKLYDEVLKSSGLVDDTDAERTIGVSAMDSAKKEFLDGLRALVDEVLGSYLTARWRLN
T1 sequence (Q8VSC3 21-545): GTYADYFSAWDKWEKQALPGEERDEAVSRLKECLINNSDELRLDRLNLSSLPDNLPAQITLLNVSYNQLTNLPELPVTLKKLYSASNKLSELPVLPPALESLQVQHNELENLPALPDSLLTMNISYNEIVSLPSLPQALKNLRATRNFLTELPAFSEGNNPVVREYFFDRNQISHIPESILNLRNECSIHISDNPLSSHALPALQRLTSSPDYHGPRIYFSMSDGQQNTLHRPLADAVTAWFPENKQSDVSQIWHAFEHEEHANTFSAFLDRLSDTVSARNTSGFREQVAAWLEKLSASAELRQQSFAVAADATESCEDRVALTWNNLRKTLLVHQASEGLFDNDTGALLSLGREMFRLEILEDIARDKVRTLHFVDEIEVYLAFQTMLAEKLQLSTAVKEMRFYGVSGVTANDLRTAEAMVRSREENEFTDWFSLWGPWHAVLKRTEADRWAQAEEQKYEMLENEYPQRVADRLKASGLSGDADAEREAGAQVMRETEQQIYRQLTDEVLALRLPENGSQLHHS
T2 sequence (D0ZPH9 166-783): as the sequence (D0ZPH9 166-783) above

Row | Structure (SMILES) | labelling of IpaH9.8 (IpaH9.8 (21–545)) | labelling of SspH2 (SspH2) | Ki (SspH2 (aa 166–783)) | kinact/KI (SspH2 (aa 166–783)) | fold higher kinact/KI with SspH2 than SspH1 (SspH2 (aa 166–783)) | Ki (SspH1 (aa 161–700)) | kinact/KI (SspH1 (aa 161–700)) | ligand efficiencies reflecting the reversible binding interactions (SspH1 (aa 161–700))
1 | Cl.O=C(CCl)N1CCC(n2c(-c3ccc(C(F)(F)F)cc3)nc3ccccc32)CC1 [compound 7] | minimal labelling | very strong labelling | > 50 µM | 6.2 M⁻¹ s⁻¹ | 4–5 fold | > 100 µM | 1.4 M⁻¹ s⁻¹ | 0.19–0.21
2 | Cc1cc(-c2nc3ccccc3n2C2CCN(C(=O)CCl)CC2)cc(C)c1O.Cl [compound 6] | minimal labelling | very strong labelling | > 50 µM | 6.9 M⁻¹ s⁻¹ | 4–5 fold | > 100 µM | 1.2 M⁻¹ s⁻¹ | 0.19–0.21

Reference: PMC12584752, “Covalent fragment screening to inhibit the E3 ligase activity of bacterial NEL enzymes SspH1 and SspH2” (RSC Chemical Biology, 2025)
